In PubChem BioAssay (NCI):
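Cultured in 96-well plates, cells were exposed to test compound for 48 hours across five concentrations. GI50 marks 50% less growth. TGI: concentration producing complete growth inhibition.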

Experiments:
Assay in all cases: inhibition of tumour cell growth, NCI panel, 48 h
T-47D breast = system: T-47D breast
TK-10 renal = system: TK-10 renal
UACC-62 melanoma = system: UACC-62 melanoma
COLO 205 colon = system: COLO 205 colon
MCF7 breast = system: MCF7 breast
OVCAR-8 ovarian = system: OVCAR-8 ovarian
UACC-257 melanoma = system: UACC-257 melanoma
MDA-MB-435 = system: MDA-MB-435
A498 renal = system: A498 renal
EKVX NSCLC = system: EKVX NSCLC

Row | SMILES | GI50 (T-47D breast) [µM] | TGI (T-47D breast) [µM] | GI50 (TK-10 renal) [µM] | TGI (TK-10 renal) [µM] | GI50 (UACC-62 melanoma) [µM] | TGI (UACC-62 melanoma) [µM] | GI50 (COLO 205 colon) [µM] | TGI (COLO 205 colon) [µM] | GI50 (MCF7 breast) [µM] | TGI (MCF7 breast) [µM] | GI50 (OVCAR-8 ovarian) [µM] | TGI (OVCAR-8 ovarian) [µM] | GI50 (UACC-257 melanoma) [µM] | TGI (UACC-257 melanoma) [µM] | TGI (MDA-MB-435) [µM] | GI50 (A498 renal) [µM] | TGI (A498 renal) [µM] | TGI (EKVX NSCLC) [µM] | GI50 (MDA-MB-435) [µM] | GI50 (EKVX NSCLC) [µM]
1 | COc1cc2c(c(OC)c1OC)-c1ccc(SC)c(=O)cc1[C@@H](NC1OC(CO)C(O)C(O)C1O)CC2 (some centres not stated) | > 74.9 | > 100 | 0.0478 | 31.2 | 0.0549 | > 100 | 0.0161 | 0.0412 | 0.0215 | > 100 | 0.0387 | > 100 | 0.447 | > 100 | 0.0373 | 0.0135 | 0.0674 | – | – | –
2 | CCCCCCN(N)C(=O)CC#N | – | – | – | > 100 | – | > 100 | – | > 100 | – | – | – | > 100 | – | > 100 | – | – | > 100 | > 100 | – | –
3 | CCOC1=C2N=C(Cc3ccccc3F)N=C2C(=O)c2ccccc21 | – | – | – | – | – | > 100 | – | > 100 | – | – | – | > 100 | – | > 100 | – | – | – | > 100 | – | –
4 | CN(C)CCC(/C=C/c1ccccc1)=N\Nc1ccc(Cl)cc1Cl | – | – | – | 27.2 | – | 21.4 | – | 28.1 | – | – | – | 30.3 | – | 27 | – | – | 30.5 | 31.1 | – | –
5 | CN1COc2c(n(C)c(=O)[nH]c2=O)C1 | – | – | – | > 100 | – | > 100 | – | > 100 | – | – | – | > 100 | – | > 100 | – | – | > 100 | > 100 | – | –
6 | c1ccc(P(=Nc2ccccc2N=P(c2ccccc2)(c2ccccc2)c2ccccc2)(c2ccccc2)c2ccccc2)cc1 | – | – | – | – | – | 11.7 | – | 3.04 | – | – | – | 12.2 | – | 12.5 | – | – | 5.56 | 15 | – | –
7 | O=C(O)/C(Cl)=C(\Cl)C(=O)Nc1ccc(Cl)c(Cl)c1Cl | – | – | – | 30.9 | – | 26.1 | – | 34.8 | – | – | – | – | – | 36.2 | – | – | 95.6 | 37.1 | – | –
8 | COc1ccc(C(=O)N2c3ccccc3Sc3ccccc32)c(OC)c1 | – | – | > 100 | > 100 | 0.321 | > 100 | – | – | 0.45 | > 100 | 0.749 | > 100 | 27.8 | > 100 | 0.953 | 0.307 | 16.6 | > 100 | 0.212 | 0.851
9 | COc1cc(-c2cc(-c3cc([N+](=O)[O-])c(/C=N/NC(=O)c4ccncc4)o3)ccc2OC)ccc1C | – | – | – | > 100 | – | > 100 | – | > 100 | – | – | – | – | – | > 100 | – | – | > 100 | > 100 | – | –
10 | COc1ccc(C(Cl)=C(c2ccc(OCCN(C)C)cc2)c2ccc(OCCN(C)C)cc2)cc1 | – | – | – | 31.1 | – | 3.16 | – | 2.94 | – | – | – | 4.06 | – | – | – | – | – | 18.1 | – | –
11 | CC1(C)C2CCC13CS(=O)(=O)N1O[C@]13C(=O)O2 (some centres not stated) | – | – | – | > 100 | – | – | – | > 100 | – | – | – | > 100 | – | > 100 | – | – | > 100 | > 100 | – | –
12 | CN1CCN(Cc2ccc(NC(=O)c3[nH]ncc3Nc3ncnc4sc5c(c34)CCCC5)cc2)CC1 | 0.457 | 13.5 | 1.14 | 2.4 | 0.55 | 1.93 | – | – | – | – | 0.413 | 2.52 | 1.21 | 3.29 | 1.71 | 0.0865 | 0.668 | – | 0.291 | –
